Laboratory results taken from patent publication EP4120837B1, “INHIBITORS OF CYTOKININ OXIDASE DERIVED FROM 2-(3-PHENYLUREIDO)BENZAMIDE, USE THEREOF AND PREPARATIONS CONTAINING THESE DERIVATIVES” (Univerzita Palackého v Olomouci, priority 2020, dated 2021).
Where “and” joins values, the source holds several entries; their conditions need not be identical. Equal entries are not always repeated.

Columns and labels:
[1] = tested on: barley; assay: Field trial, seed yield of barley; assay type: in vivo; details: for Yield (%): control = 100 %
Description: The effect of compound 24 on seed yield of barley and its phenotype was investigated in a field trials. All field experiments were performed according to Good agricultural practices, ie. six areas of 10 m^2 were used for one variant. Furthermore, the crop was not treated with any other growth regulator (substance 24 only) or fungicide. Compound 24 was applied to seeds at a concentration of 10 µM before sowing. In 2016 barley seeds treated by this way were grown in the field and the yield of these plants was compared with the untreated control (Table 4).
In 2017, compound 24 was applied to barley leaves at a concentration of 5 µM (in a volume of 200 L per hectare) in two different growth phases - BBCH 21-23 and BBCH 51. […] Table 4. Application of substance 24 increases the seed yield of barley in field conditions

[2] = biological target: T1, ZmCKX1 (Zea mays, UniProt Q9T0N8); assay: ZmCKX1 inhibition, PMS/MTT assay; assay type: biochemical, maize; details: 10 µM iP as substrate, pH 7.4, 30 min at 37 °C; average of at least two measurements; read-out: IC50 (µM) ZmCKX1
T1 construct: made in house; host or cells: Yarrowia lipolytica
Description: The IC50 (concentration of a substance that causes 50% inhibition of the enzyme activity) was measured by PMS/MTT assay [phenazine methosulphate/3-(4,5-dimethylthiazol-2-yl)-2,5-diphenyltetrazolium bromide]. The assay was performed in 96-well microtiter plates. Each well contained a reaction mixture with a final concentration of: 0.1 M KH2PO4, pH 7.4, 1 mM MTT, 0.2 mM PMS, tested substance in a concentration range of 0.1 nM - 1 µM and 10 µM N^6-isopentenyladenine (iP) as a substrate. To this reaction mixture 100 µL of medium containing the active enzyme ZmCKX1 was added. The enzyme was produced by the yeast Yarrowia lipolytica and isolated according to the protocol (Kopečný D. et al., 2005, […] 87:1011-1022). The plates were incubated for 30 min at 37 °C and the enzymatic reaction was stopped by the addition of 25 µL of 35% acetic acid. Then, the absorbance at 578 nm was measured on a spectrophotometer, and the absorbance of the sample without the substrate was substracted as a reference value. The IC50 value was determined from the concentration-dependent curves in GraphPad Prism software. The values shown in Table 1 are the average of at least two measurements each performed in three repetitions. […] The substance 3,5DCl-Ph-U is 1-(3,5-dichlorophenyl)-3-phenylurea, which we have been prepared to compare its inhibitory activity with the compounds presented in the present invention. Addition of the amide group to the unsubstituted phenyl ring of this substance gives the compound 2AD-3,5DC, which has 42-fold better inhibitory activity with the ZmCKX1 enzyme than 3,5DCl-Ph-U. F-INCYDE ((2-fluoro-9H-purin-6-yl)-(3-methoxyphenyl)amine), CPPU (1-(2-chloropyridin-4-yl)-3-phenylurea), and DCPPU (1-(2,6-dichloropyridin-4-yl)-3-phenylurea) are substances known in the prior art.

[3] = tested on: wheat; assay: Field trial, seed yield of wheat; assay type: in vivo; details: for Yield (%): control = 100 %
Description: Example 19. The application of compound 24 increases the seed yield of wheat in field conditions In 2017, the effect of the application of substance 24 on wheat yield in field conditions was investigated. The substance was again applied either to wheat seeds before sowing (= seed dressing with substance 24 at a concentration of 50 µM) or to leaves (= spraying with substance 24 at a concentration of 5 µM) in two different growth phases - BBCH 25 and BBCH 51. All field experiments were performed according to Good Agricultural Practice. […] Table 6. Application of compound 24 increases seed yield of wheat in field conditions

[4] = tested on: Arabidopsis thaliana; assay: Foliar application, seed yield of Arabidopsis under optimal conditions; assay type: in vivo
Description: In our experiment, young Arabidopsis thaliana plants were grown in small pots in soil and they were sprayed with a 0.01 µM compound 24 (aq solution) in phase of 4 true leaves (about 14-20 days after sowing). Control plants were sprayed with an aqueous solution of DMSO (c = 0.01% (v/v)) and silwet (c = 0.001% (v/v)). Both treated (n = 25) and control plants (n = 25) were further grown under optimal conditions until their natural death. Subsequently, seeds from all plants were harvested and the yield was evaluated (Table 2). […] This means an increase in total seed yield of 21 %.
This means an increase in total seed yield of 17 %. Table 2. Foliar application of 24 increases seed yield of Arabidopsis thaliana

[5] = tested on: Arabidopsis thaliana; assay: Foliar application, life span and seed yield of Arabidopsis under drought stress; assay type: in vivo; details: 0.01 µM foliar spray, reduced watering
Description: Young Arabidopsis thaliana plants grown in small pots in soil were sprayed with a 0.01 µM aqueous solution of substance 24 in phase of four true leaves (within 14-20 days after sowing). Control plants were sprayed with an aqueous solution of DMSO (c = 0.01% (v/v)) and silwet (c = 0.001% (v/v)). Control plants were further divided into watered plants and those with reduced watering (drought stressed). […] All plants were grown until the stage of their natural death. Control watered plants lived for an average of 85 days before dying spontaneously. Their seed yield in average was 141 (± 22) mg. Control plants with reduced watering lived only 61 days on average and the average yield was 95 (± 14) mg. Plants treated with substance 24 and with reduced watering lived for an average of 75 days and their average seed yield was 117 (± 16) mg. […] Table 3. Foliar application with compound 24 reduces Arabidopsis thaliana seed yield losses

[6] = tested on: winter rapeseed; assay: Field trial, seed yield of winter rapeseed; assay type: in vivo; details: 1 µM foliar application; for Yield (%): 300 L per hectare, control = 100 %; for weight of one thousand seeds: control 5.38 g
Description: In 2018, the effect of foliar application of substance 24 (concentration 1 µM in a volume of 300 L per hectare) on the yield of winter rapeseed was investigated in field conditions. The field trials were again performed according to Good Agricultural Practice. Substance 24 was applied to plants in two different growth phases - BBCH 30 and BBCH 33-35. […] The weight of one thousand seeds in the treated plants was 5.6 g (BBCH 30) and 5.8 g (BBCH 33-35). This phenomenon also contributed to the increase in total seed yield. Table 5. Application of substance 24 increases the seed yield of winter rapeseed in field conditions

[7] = 10 µM seed application before sowing, 2016

T1 sequence (Q9T0N8 19-534): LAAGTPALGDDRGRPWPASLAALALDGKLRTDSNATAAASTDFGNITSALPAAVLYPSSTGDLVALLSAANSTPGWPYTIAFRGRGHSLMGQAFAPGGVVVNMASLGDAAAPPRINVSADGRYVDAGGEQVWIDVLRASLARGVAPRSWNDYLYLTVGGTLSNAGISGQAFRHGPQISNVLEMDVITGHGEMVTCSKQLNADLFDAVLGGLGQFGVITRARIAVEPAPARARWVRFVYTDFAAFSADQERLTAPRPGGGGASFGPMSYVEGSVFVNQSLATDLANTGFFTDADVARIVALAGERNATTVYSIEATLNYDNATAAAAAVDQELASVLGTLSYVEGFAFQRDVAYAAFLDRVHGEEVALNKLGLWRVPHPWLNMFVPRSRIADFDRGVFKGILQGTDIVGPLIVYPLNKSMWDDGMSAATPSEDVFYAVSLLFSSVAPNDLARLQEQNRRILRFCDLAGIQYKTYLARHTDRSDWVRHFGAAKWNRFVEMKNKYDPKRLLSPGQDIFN

Question: How did the “Yield (%)” value ([1]; 5 µM foliar application, 200 L per hectare, BBCH 21-23, 2017) turn out when `COc1ccc(C(N)=O)c(NC(=O)Nc2cc(Cl)cc(Cl)c2)c1` [compound 24, 2-[3-(3,5-Dichlorophenyl)ureido]-4-methoxybenzamide] was run?
Answer: The value was 106.3%.

Question: And the “Yield (%)” value ([1]; 5 µM foliar application, 200 L per hectare, BBCH 51, 2017)?
Answer: Its value is 106.8%.

Question: What about the “number of tillers, more than the control plants” value [1, 7] of the same compound?
Answer: Its value is 14%.

Question: And the “Yield (%)” value [1, 7]?
Answer: The value was 105.3%.

Question: What about the IC50 [2] of the same compound?
Answer: The IC50 was 0.001 µM.

Question: And the “Yield (%)” value ([3]; 5 µM foliar application, BBCH 25, 2017)?
Answer: Its value is 105.9%.

Question: And the “Yield (%)” value ([3]; 5 µM foliar application, BBCH 51, 2017)?
Answer: Its value is 105.0%.

Question: What about the “Yield (%)” value ([3]; 50 µM seed dressing before sowing, 2017) of the same compound?
Answer: The value was 104.0%.

Question: What about the “tillers, more than the control plants” value ([3]; treated plants, mode of application not specified, 2017) of the same compound?
Answer: The value was “about 7%”.

Question: And the “Yield (mg), total seed yield per plant” value ([4]; 0.01 µM aq solution sprayed in phase of 4 true leaves, n = 25, experiment and its repeat)?
Answer: Its value is 148 (± 17) mg and 135 (± 13) mg and 148 ± 17 mg and 135 ± 13 mg.

Question: And the seeds per silique ([4]; 0.01 µM foliar spray, average)?
Answer: Its seeds per silique is 50 (± 5) and 52 (± 7).

Question: What about the “Yield (%)” value ([4]; 0.01 µM foliar spray, control = 100 %) of the same compound?
Answer: The value was 121% and 117%.

Question: What about the “Yield (mg), average seed yield” value [5] of the same compound?
Answer: Its value is 117 ± 16 mg.

Question: And the “life span (lived for an average of)” value [5]?
Answer: Its value is 75 days.

Question: What about the “Yield (mg), average seed yield” value ([5]; listed as substance 24) of the same compound?
Answer: The value was 117 (± 16) mg.

Question: What about the “Yield (%)” value ([5]; watered control = 100 %) of the same compound?
Answer: The value was 83%.

Question: And the “Yield (%)” value ([6]; BBCH 30, 2018)?
Answer: Its value is 106.2%.

Question: And the “Yield (%)” value ([6]; BBCH 33-35, 2018)?
Answer: Its value is 108.8%.

Question: What about the “weight of one thousand seeds” value ([6]; BBCH 30) of the same compound?
Answer: The value was 5.6 g.

Question: What about the “weight of one thousand seeds” value ([6]; BBCH 33-35) of the same compound?
Answer: The value was 5.8 g.
